Reference: US10144709B2, “Piperidine compounds, pharmaceutical composition comprising the same and its use” (SK BIOPHARMACEUTICALS CO., LTD., priority 2008, dated 2018)
Structures can show the parent of a compound that is named as a salt.

System: ICR CD strain male mice
Experiment: Gastric emptying enhancing activity (phenol red meal)
Type: in vivo
Settings: Mus musculus, ip, 0.25 h, 3.0 mg/kg i.p., gastric emptying at 15 min after test meal, increase vs vehicle
Method: ICR CD strain male mice (body weight, 25˜30 g; 8 mice per one group) were fasted for 24 h but allowed free access to water until 3 hours before the test.
Compounds to be tested for promoting GI motility were injected intraperitoneally or given orally at 30 min or 60 min prior to phenol red meal administration. Fifteen (15) min after administration of a test meal (0.5% Phenol red in 1.5% methylcellulose solution), mice were sacrificed and the stomach (pylorus˜cardia) was removed and collected to vial. The stomach was homogenized with its contents in 0.1N NaOH and the mixture was centrifuged (700*g) for 20 min. 2.5 mL of the supernatant was added to 0.25 mL of trichloroacetic acid solution (20% w/v) to precipitate proteins. After centrifuging (2600*g) for 20 min, 0.5 mL of the supernatant was added to 0.25 mL of 1N NaOH. The mixture was homogenized and its absorbance (Abs) was read at 560 nm.
In each experiment, one group was sacrificed just after the administration of the test meal and was considered as a standard (0% emptying). The gastric emptying (GE) at the 15 min period was calculated according to the following formula. GE (%)=(1−Abstest/Absstandard)×100 Increase (%)=(GE %test−GE %vehicle)/GE %vehicle*100

| Compound | change in vivo at 3 mg/kg |
| --- | --- |
| COc1cc(N)c(Cl)cc1C(=O)NCC1CCN(CC(COc2ccccc2)OC(=O)N2CCCCC2)CC1 (stereo not drawn) [Example 88, [1-[4-[[(4-amino-5-chloro-2-methoxybenzoyl)amino]methyl]piperidin-1-yl]-3-phenoxypropan-2-yl]piperidine-1-carboxylate; hydrochloride] | 44.1% |
| COc1cc(N)c(Cl)cc1C(=O)NCC1CCN(CC(COc2ccc(F)cc2)OC(=O)N2CC(C)CC(C)C2)CC1 (stereo not drawn) [Example 89, [1-[4-[[(4-amino-5-chloro-2-methoxybenzoyl)amino]methyl]piperidin-1-yl]-3-(4-fluorophenoxy)propan-2-yl]3,5-dimethylpiperidine-1-carboxylate; hydrochloride] | 45.3% |
| COc1cc(N)c(Cl)cc1C(=O)NCC1CCN(CC(COc2ccc(Cl)cc2Cl)NC(=O)O)CC1 (stereo not drawn) [Example 96, [1-[4-[[(4-amino-5-chloro-2-methoxybenzoyl)amino]methyl]piperidin-1-yl]-3-(2,4-dichlorophenoxy)propan-2-yl]carbamate; hydrochloride] | 105% |
| COc1cc(N)c(Cl)cc1C(=O)NCC1CCN(CC(COc2c(Cl)cccc2Cl)NC(=O)O)CC1 (stereo not drawn) [Example 98, [1-[4-[[(4-amino-5-chloro-2-methoxybenzoyl)amino]methyl]piperidin-1-yl]-3-(2,6-dichlorophenoxy)propan-2-yl]carbamate; hydrochloride] | 63.6% |
| COc1cc(N)c(Cl)cc1C(=O)NCC1CCN(CC(COc2ccc(Cl)c(Cl)c2)NC(=O)O)CC1 (stereo not drawn) [Example 99, [1-[4-[[(4-amino-5-chloro-2-methoxybenzoyl)amino]methyl]piperidin-1-yl]-3-(3,4-dichlorophenoxy)propan-2-yl]carbamate; hydrochloride] | 47.5% |
| COc1cc(N)c(Cl)cc1C(=O)NCC1CCN(CC(COc2ccc(C(F)(F)F)cc2)NC(=O)O)CC1 (stereo not drawn) [Example 100, [1-[4-[[(4-amino-5-chloro-2-methoxybenzoyl)amino]methyl]piperidin-1-yl]-3-[4-(trifluoromethyl)phenoxy]propan-2-yl]carbamate; hydrochloride] | 46.1% |
| COc1cc(N)c(Cl)cc1C(=O)NCC1CCN(CC(Cc2ccccc2)NC(=O)O)CC1 (stereo not drawn) [Example 103, [1-[4-[[(4-amino-5-chloro-2-methoxybenzoyl)amino]methyl]piperidin-1-yl]-3-phenylpropan-2-yl]carbamate; hydrochloride] | 88.8% |
| CC(C)n1c(=O)n(C(=O)NCC2CCN(CC(O)COc3ccccc3)CC2)c2ccccc21 (stereo not drawn) [Example 104, N-[[1-(2-hydroxy-3-phenoxypropyl)piperidin-4-yl]methyl]-2-oxo-3-propan-2-ylbenzimidazole-1-carboxamide; hydrochloride] | 81% |
| Cn1c(=O)n(C(=O)NCC2CCN(CC(O)COc3ccccc3)CC2)c2ccccc21 (stereo not drawn) [Example 111, N-[[1-(2-hydroxy-3-phenoxypropyl)piperidin-4-yl]methyl]-3-methyl-2-oxobenzimidazole-1-carboxamide; hydrochloride] | 37.2% |
| COc1ccc(OCC(CN2CCC(CNC(=O)n3c(=O)n(C(C)C)c4ccccc43)CC2)NC(=O)O)cc1 (stereo not drawn) [Example 121, [1-(4-methoxyphenoxy)-3-[4-[[(2-oxo-3-propan-2-ylbenzimidazole-1-carbonyl)amino]methyl]piperidin-1-yl]propan-2-yl]carbamate; hydrochloride] | 46.8% |
| CC(C)n1c(=O)n(C(=O)NCC2CCN(CC(COc3ccc(F)cc3)NC(=O)O)CC2)c2ccccc21 (stereo not drawn) [Example 122, [1-(4-fluorophenoxy)-3-[4-[[(2-oxo-3-propan-2-ylbenzimidazole-1-carbonyl)amino]methyl]piperidin-1-yl]propan-2-yl]carbamate; hydrochloride] | 6.8% |
| Cc1ccccc1OCC(CN1CCC(CNC(=O)n2c(=O)n(C(C)C)c3ccccc32)CC1)NC(=O)O (stereo not drawn) [Example 123, [1-(2-methylphenoxy)-3-[4-[[(2-oxo-3-propan-2-ylbenzimidazole-1-carbonyl)amino]methyl]piperidin-1-yl]propan-2-yl]carbamate; hydrochloride] | 56.8% |
| Cn1c(=O)n(C(=O)NCC2CCN(CC(COc3ccccc3)NC(=O)O)CC2)c2ccccc21 (stereo not drawn) [Example 126, [1-[4-[[(3-methyl-2-oxobenzimidazole-1-carbonyl)amino]methyl]piperidin-1-yl]-3-phenoxypropan-2-yl]carbamate; hydrochloride] | 93.3% |
| O=C(NCC1CCN(CCC(O)c2ccccc2)CC1)n1c(=O)n(C2CC2)c2ccccc21 (stereo not drawn) [Example 135, 3-cyclopropyl-N-[[1-(3-hydroxy-3-phenylpropyl)piperidin-4-yl]methyl]-2-oxobenzimidazole-1-carboxamide; hydrochloride] | 90.3% |
| CC(C)n1c(=O)n(C(=O)NCC2CCN(CCC(O)c3ccccc3)CC2)c2ccccc21 (stereo not drawn) [Example 136, N-[[1-(3-hydroxy-3-phenylpropyl)piperidin-4-yl]methyl]-2-oxo-3-propan-2-ylbenzimidazole-1-carboxamide; hydrochloride] | 64.1% |
